Test results taken from PubChem BioAssay (NCI).
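Values below derive from 48-hour exposures of cells grown in 96-well plates, with endpoints linearly interpolated between the two concentrations bracketing the appropriate inhibition level. Here, GI50 denotes the concentration required for 50% inhibition of growth. TGI: total growth inhibition.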

Key:
Experiment in all cases: DTP human tumour cell line panel, 48 h
RXF 393 renal = system: RXF 393 renal
SNB-75 CNS = system: SNB-75 CNS
SW-620 colon = system: SW-620 colon
U251 CNS = system: U251 CNS
RPMI-8226 leukemia = system: RPMI-8226 leukemia
T-47D breast = system: T-47D breast
MDA-MB-231 breast = system: MDA-MB-231 breast
DU-145 prostate = system: DU-145 prostate
SN12C renal = system: SN12C renal
UACC-62 melanoma = system: UACC-62 melanoma

Row | Structure (SMILES) | GI50 (RXF 393 renal) | TGI (RXF 393 renal) | GI50 (SNB-75 CNS) | TGI (SNB-75 CNS) | GI50 (SW-620 colon) | TGI (SW-620 colon) | GI50 (U251 CNS) | TGI (U251 CNS) | GI50 (RPMI-8226 leukemia) | TGI (RPMI-8226 leukemia) | GI50 (T-47D breast) | TGI (T-47D breast) | GI50 (MDA-MB-231 breast) | TGI (MDA-MB-231 breast) | GI50 (DU-145 prostate) | TGI (DU-145 prostate) | GI50 (SN12C renal) | TGI (SN12C renal) | GI50 (UACC-62 melanoma) | TGI (UACC-62 melanoma)
1 | Cc1cc(O)ccc1O | 15.5 µM | 29.1 µM | 24.1 µM | > 100 µM | 20.7 µM | 38.6 µM | 32.8 µM | > 100 µM | 9.26 µM | 89.7 µM | 18.2 µM | 60.8 µM | 11.4 µM | 23.6 µM | 17.4 µM | 31.6 µM | 14.4 µM | 27.8 µM | 17.9 µM | 81.3 µM
2 | CS(=O)(=O)Nc1cccc(-c2ccc3c(NC(=O)C4CC4)n[nH]c3c2)c1 | 1.28 µM | > 25 µM | 4.6 µM | > 25 µM | 2.14 µM | > 25 µM | 1.49 µM | > 25 µM | 10.8 µM | > 25 µM | 1.2 µM | > 25 µM | 6.35 µM | > 25 µM | 6.82 µM | > 25 µM | 5.25 µM | > 25 µM | 1.03 µM | > 25 µM
3 | O=C1CSC(=S)N1Cc1cccnc1 | 6.11 µM | 24.2 µM | 16.2 µM | 72.5 µM | 4.13 µM | 16.8 µM | 23.5 µM | 61.5 µM | 3.35 µM | 17.1 µM | 11.1 µM | 32.7 µM | 4.47 µM | 17.2 µM | 2.4 µM | 5.71 µM | 14.5 µM | 29.2 µM | 11.3 µM | 24.7 µM
4 | O=c1[nH]ccc2nc(-c3ccc(CN4CCC(c5nc(-c6ccccn6)n[nH]5)CC4)cc3)c(-c3ccccc3)cc12 | 0.272 µM | 4.73 µM | 0.0534 µM | 7.75 µM | 42.3 µM | > 100 µM | 13.2 µM | > 66.6 µM | 4.85 µM | > 50.2 µM |  | 0.0729 µM | 19.2 µM | > 75.8 µM | 22.3 µM | > 100 µM | 32.1 µM | > 100 µM | 16.3 µM | > 86.6 µM
5 | CCCCCCCCCCCCCCCCOC(=O)c1c(C)[nH]c(/C=C2\N=C(c3ccc[nH]3)C=C2OC)c1C | 1.41 µM | 6.46 µM | 2.47 µM | 7.17 µM | 0.182 µM | > 100 µM | 0.638 µM | 7.04 µM | 0.0958 µM | > 100 µM | 0.433 µM | 12.8 µM | 0.789 µM | 10.1 µM | 0.406 µM | > 56.5 µM | 1.64 µM | 23.7 µM | 0.235 µM | 0.62 µM
6 | O=C1/C(=C/c2ccc([N+](=O)[O-])o2)Oc2ccccc21 | 1.61 µM | 3.24 µM | 1.8 µM | 5.77 µM | 0.373 µM | 1.61 µM | 1.96 µM | 4.66 µM | 1.02 µM | 3.58 µM | 1.24 µM | 4.34 µM | 1.54 µM | 3.58 µM | 1.91 µM | 3.73 µM | 2.17 µM | 5.53 µM | 1.47 µM | 2.93 µM
7 | COc1cc(-n2cc(-c3ccc(F)cc3)[nH]c2=S)cc(OC)c1OC | 71.4 µM | > 100 µM | 17.9 µM | 46.5 µM | > 100 µM | > 100 µM | > 100 µM | > 100 µM | > 100 µM | > 100 µM | 72.4 µM | > 100 µM | 36.4 µM | > 100 µM | > 100 µM | > 100 µM | > 100 µM | > 100 µM | > 100 µM | > 100 µM
8 | O=C(NCC(=O)N1CC[C@H](NC2CCC(O)(c3ccc(-c4ncccn4)cn3)CC2)C1)c1cccc(C(F)(F)F)c1 (some centres undefined) | 61.7 µM | > 100 µM | 20.2 µM | > 100 µM | > 100 µM | > 100 µM | 91.8 µM | > 100 µM | 31 µM | > 100 µM | 22.9 µM | > 100 µM | 49.5 µM | > 100 µM | > 100 µM | > 100 µM | > 100 µM | > 100 µM | > 100 µM | > 100 µM
9 | CO/N=C(\COc1ccc2c(c1)oc(=O)c1cc(OC)ccc12)c1cccc(OC)c1 | > 100 µM | > 100 µM | > 100 µM | > 100 µM | > 100 µM | > 100 µM | > 100 µM | > 100 µM | > 100 µM | > 100 µM | > 100 µM | > 100 µM | > 100 µM | > 100 µM | > 100 µM | > 100 µM | > 100 µM | > 100 µM | > 100 µM | > 100 µM
